Assay results taken from patent publication US9089640B2, “Apparatus and kit for encapsulating at least one compound for therapeutic and/or diagnostic use in erythrocytes” (ERYDEL S.p.A., priority 2010, dated 2015).

Tested on: autologous IgGs
Assay: Recognition of treated erythrocytes by autologous IgGs (targeting to macrophages)
Format: cell-based
Protocol: The targeting to macrophages of erythrocytes containing drugs and/or contrast means can be achieved by the apparatus shown in the figure following a procedure similar to that used in example 1. When fludarabine was used as an encapsulating agent, a final concentration of 0.8 mM was obtained. The erythrocytes treated in this way were recognised by autologous IgGs in percentages over 80% the total number of processed cells.

Nc1nc(F)nc2c1ncn2[C@@H]1O[C@H](CO)[C@@H](O)[C@@H]1O [fludarabine]
Treated erythrocytes recognised by autologous IgGs, percentage of total number of processed cells: over 80%
